Read-outs that look alike come from different tables or passages of the source.

Here are results for 24 compounds from patent publication US20180186742A1, “PICOLINAMIDES AS FUNGICIDES” (Dow AgroSciences LLC, priority 2017, published 2018).

Assay [1] relates to Zymoseptoria tritici. Nature of the assay: Leaf blotch of wheat (SEPTTR), disease control on wheat seedlings. The format is in vivo. Conditions: for pest or weed control at 100 ppm: high volume application at 100 ppm; for pest or weed control at 121.5 g/ha: low volume application at 121.5 g/H. Here is the method:
Technical grades of materials were dissolved in acetone, which were then mixed with nine volumes of water containing 110 ppm Triton X-100. The fungicide solutions were applied onto wheat seedlings using an automated booth sprayer to run-off. All sprayed plants were allowed to air dry prior to further handling. All fungicides were evaluated using the aforementioned method for their activity vs. all target diseases, unless stated otherwise. Wheat leaf blotch and brown rust activity were also evaluated using track spray applications, in which case the fungicides were formulated as EC formulations, containing 0.1% Trycol 5941 in the spray solutions. Wheat plants (variety Yuma) were grown from seed in a greenhouse in 50% mineral soil/50% soil-less Metro mix until the first leaf was fully emerged, with 7-10 seedlings per pot. These plants were inoculated with an aqueous spore suspension of Zymoseptoria tritici either prior to or after fungicide treatments. After inoculation the plants were kept in 100% relative humidity (one day in a dark dew chamber followed by two to three days in a lighted dew chamber at 20° C.) to permit spores to germinate and infect the leaf. The plants were then transferred to a greenhouse set at 20° C. for disease to develop. When disease symptoms were fully expressed on the 1st leaves of untreated plants, infection levels were assessed on a scale of 0 to 100 percent disease severity. Percent disease control was calculated using the ratio of disease severity on treated plants relative to untreated plants.

The test system of assay [2] is Puccinia triticina. As to the kind of experiment: Wheat brown rust (PUCCRT), disease control on wheat seedlings. The format is in vivo. The settings on record: for pest or weed control at 100 ppm: high volume application at 100 ppm; for pest or weed control at 121.5 g/ha: low volume application at 121.5 g/H. Here is the method: Technical grades of materials were dissolved in acetone, which were then mixed with nine volumes of water containing 110 ppm Triton X-100. The fungicide solutions were applied onto wheat seedlings using an automated booth sprayer to run-off. All sprayed plants were allowed to air dry prior to further handling. All fungicides were evaluated using the aforementioned method for their activity vs. all target diseases, unless stated otherwise. Wheat leaf blotch and brown rust activity were also evaluated using track spray applications, in which case the fungicides were formulated as EC formulations, containing 0.1% Trycol 5941 in the spray solutions. Wheat plants (variety Yuma) were grown from seed in a greenhouse in 50% mineral soil/50% soil-less Metro mix until the first leaf was fully emerged, with 7-10 seedlings per pot. These plants were inoculated with an aqueous spore suspension of Puccinia triticina either prior to or after fungicide treatments. After inoculation the plants were kept in a dark dew room at 22° C. with 100% relative humidity overnight to permit spores to germinate and infect the leaf. The plants were then transferred to a greenhouse set at 24° C. for disease to develop. Fungicide formulation, application and disease assessment followed the procedures as described in the Example A.

The mark [3] stands for this setting: 24 h, 1 Day Protectant, read-out: SEPTTR disease control, 1DP, HV activity.
Setting [4] is: 72 h, 3 Day Curative, read-out: SEPTTR disease control, 3DC, HV activity.
Where [5] appears, read: 24 h, 1 Day Protectant, read-out: PUCCRT disease control, 1DP, HV activity.
[6] abbreviates: 72 h, 3 Day Curative, read-out: PUCCRT disease control, 3DC, HV activity.
Setting [7] is: 24 h, 1 Day Protectant, read-out: SEPTTR disease control, 1DP, LV activity.
The mark [8] stands for this setting: 24 h, 1 Day Protectant, read-out: PUCCRT disease control, 1DP, LV activity.
Setting [9] is: 72 h, 3 Day Curative, read-out: PUCCRT disease control, 3DC, LV activity.

For `CCC(CC)[C@@H](c1ccccc1)C(C)OC(=O)[C@H](C)NC(=O)c1nccc(OC)c1O` (stereo partly drawn) [Compound 112], the pest or weed control at 100 ppm in assay [1] (setting [3]), in assay [1] (setting [4]), in assay [2] (setting [5]) and in assay [2] (setting [6]) was > 80% each time.
`COc1ccnc(C(=O)N[C@@H](C)C(=O)O[C@@H](C)[C@H](c2ccc3c(c2)OCO3)C(C)C)c1O` [Compound 334]: the pest or weed control at 100 ppm was < 80% in assay [1] (setting [3]), < 0% in assay [1] (setting [4]), > 80% in assay [2] (setting [5]) and > 80% in assay [2] (setting [6]).
`COc1ccc([C@H](C(C)C)[C@H](C)OC(=O)[C@H](C)NC(=O)c2nccc(OC)c2OC(C)=O)cc1F` [Compound 252]: the figures for the pest or weed control at 121.5 g/ha in assay [1] (setting [7]), in assay [2] (setting [8]) and in assay [2] (setting [9]) were < 80%, > 80% and < 80%, respectively.
For `COc1cc(C)ccc1[C@H](C(C)C)[C@H](C)OC(=O)[C@H](C)NC(=O)c1nccc(OC)c1OCOC(C)=O` [Compound 259], the pest or weed control at 121.5 g/ha in assay [1] (setting [7]) is < 80%; in assay [2] (setting [8]), > 80%; in assay [2] (setting [9]), > 80%.
For the compound `COc1ccnc(C(=O)N[C@@H](C)C(=O)O[C@@H](C)[C@H](c2ccc(F)c(C)c2)C(C)C)c1OC(C)=O` [Compound 250], the pest or weed control at 121.5 g/ha in assay [1] (setting [7]), in assay [2] (setting [8]) and in assay [2] (setting [9]) was > 80% in each case.
For `COc1ccnc(C(=O)N[C@@H](C)C(=O)O[C@@H](C)[C@H](c2ccc(F)cc2)C(C)C)c1O` [Compound 135], the pest or weed control at 100 ppm was < 80% in assay [1] (setting [3]), > 80% in assay [1] (setting [4]), < 80% in assay [2] (setting [5]) and > 80% in assay [2] (setting [6]).
Take `CCC(CC)[C@@H](c1ccccc1)C(C)OC(=O)[C@H](C)NC(=O)c1nccc(OC)c1OC(C)=O` (stereo partly drawn) [Compound 172]: the pest or weed control at 121.5 g/ha in assay [1] (setting [7]) was > 80%; in assay [1] (72 h, 3 Day Curative, read-out: SEPTTR disease control, 3DC, LV activity), > 80%; in assay [2] (setting [8]), > 80%; in assay [2] (setting [9]) it was > 80%.
In the case of `CCC(C)[C@H](c1ccc(F)cc1OC)[C@H](C)OC(=O)[C@H](C)NC(=O)c1nccc(OC)c1O` (stereo partly drawn) [Compound 141], the pest or weed control at 100 ppm was < 0% in assay [1] (setting [3]), > 80% in assay [1] (setting [4]), < 80% in assay [2] (setting [5]) and > 80% in assay [2] (setting [6]).
On to `COc1ccnc(C(=O)N[C@@H](C)C(=O)O[C@@H](C)[C@@H](c2ccc(C)cc2C)C2CCCC2)c1O` [Compound 132], for which the pest or weed control at 100 ppm in assay [1] (setting [3]) was > 80%; in assay [1] (setting [4]), < 80%; in assay [2] (setting [5]), > 80%; in assay [2] (setting [6]) it was > 80%.
`COc1ccnc(C(=O)N[C@@H](C)C(=O)O[C@@H](C)[C@@H](c2ccc(C)cc2C)C2CCC2)c1O` [Compound 149]: the pest or weed control at 100 ppm in assay [1] (setting [3]) is < 80%; in assay [1] (setting [4]), > 80%; in assay [2] (setting [5]), < 80%; in assay [2] (setting [6]), < 80%.
As to `COc1ccnc(C(=O)N[C@@H](C)C(=O)O[C@H](C)[C@H](c2ccc(F)cc2C)C(C)C)c1O` [Compound 130], the pest or weed control at 100 ppm was < 80% in assay [1] (setting [3]), < 80% in assay [1] (setting [4]), > 80% in assay [2] (setting [5]) and < 80% in assay [2] (setting [6]).
`COc1ccnc(C(=O)N[C@@H](C)C(=O)O[C@@H](C)[C@H](c2ccccc2OC(C)C)C(C)C)c1O` [Compound 337]: the pest or weed control at 100 ppm in assay [1] (setting [3]) is < 80%; in assay [1] (setting [4]), < 0%; in assay [2] (setting [5]) it was > 80%; in assay [2] (setting [6]) it was > 80%.
Take `COc1ccnc(C(=O)N[C@@H](C)C(=O)O[C@@H](C)[C@@H](c2ccccc2)C2CCCC2)c1O` [Compound 106]: the pest or weed control at 100 ppm in assay [1] (setting [3]) was < 0%; in assay [1] (setting [4]) it was < 0%; in assay [2] (setting [5]), < 80%; in assay [2] (setting [6]), < 0%.
In the case of `COc1ccnc(C(=O)N[C@@H](C)C(=O)O[C@@H](C)[C@H](c2ccc(C)cc2F)C(C)C)c1O` [Compound 329], the pest or weed control at 100 ppm in assay [1] (setting [3]) is < 80%; in assay [1] (setting [4]), < 80%; in assay [2] (setting [5]), > 80%; in assay [2] (setting [6]), > 80%.
Take `COc1ccnc(C(=S)N[C@@H](C)C(=O)O[C@@H](C)[C@@H](c2ccccc2)C2CCCC2)c1O` [Compound 115]: the pest or weed control at 100 ppm was < 80% in assay [1] (setting [3]), < 0% in assay [1] (setting [4]), < 0% in assay [2] (setting [5]) and < 0% in assay [2] (setting [6]).
`COCCC(=O)Oc1c(OC)ccnc1C(=O)N[C@@H](C)C(=O)O[C@@H](C)[C@H](c1ccc(C)cc1OC)C(C)C` [Compound 249]: the pest or weed control at 121.5 g/ha in assay [1] (setting [7]) was < 80%; in assay [2] (setting [8]), > 80%; in assay [2] (setting [9]), > 80%.
For `COc1ccnc(C(=O)N[C@@H](C)C(=O)O[C@@H](C)[C@H](c2c(F)cc(F)cc2F)C(C)C)c1O` [Compound 341], the pest or weed control at 100 ppm in assay [1] (setting [3]), in assay [1] (setting [4]), in assay [2] (setting [5]) and in assay [2] (setting [6]) was > 80% throughout.
As to `COCCC(=O)Oc1c(OC)ccnc1C(=O)N[C@@H](C)C(=O)O[C@@H](C)[C@H](c1ccc(OC)c(F)c1)C(C)C` [Compound 248], the pest or weed control at 121.5 g/ha in assay [1] (setting [7]), in assay [2] (setting [8]) and in assay [2] (setting [9]) was < 80% in each case.
As for `COc1cc(F)ccc1[C@H](C1CCCC1)[C@H](C)OC(=O)[C@H](C)NC(=O)c1nccc(OC)c1O` [Compound 144], the pest or weed control at 100 ppm in assay [1] (setting [3]) is < 80%; in assay [1] (setting [4]), > 80%; in assay [2] (setting [5]) it was > 80%; in assay [2] (setting [6]), > 80%.
In the case of `COc1ccc([C@H](C(C)C)[C@H](C)OC(=O)[C@H](C)NC(=O)c2nccc(OC)c2OCOC(C)=O)c(C)c1` [Compound 260], the pest or weed control at 121.5 g/ha in assay [1] (setting [7]), in assay [2] (setting [8]) and in assay [2] (setting [9]) was > 80% in each case.
Consider `COc1ccnc(C(=O)N[C@@H](C)C(=O)O[C@@H](C)[C@H](c2ccc(C)cc2C)C(C)C)c1O` [Compound 325], for which the pest or weed control at 100 ppm in assay [1] (setting [3]) was > 80%; in assay [1] (setting [4]), < 80%; in assay [2] (setting [5]) it was > 80%; in assay [2] (setting [6]), > 80%.
`COc1cc(F)ccc1[C@@H](C(C)C)[C@H](C)OC(=O)[C@H](C)NC(=O)c1nccc(OC)c1O` [Compound 138]: the pest or weed control at 100 ppm in assay [1] (setting [3]) was < 0%; in assay [1] (setting [4]), < 0%; in assay [2] (setting [5]), > 80%; in assay [2] (setting [6]), > 80%.
Turning to `CCC(C)[C@@H](c1ccccc1C)[C@H](C)OC(=O)[C@H](C)NC(=O)c1nccc(OC)c1OC(C)=O` (stereo partly drawn) [Compound 384], the pest or weed control at 121.5 g/ha is > 80% in assay [1] (24 h, 1 Day Protectant, wheat leaf blotch, read-out: SEPTTR 1DP disease control, LV activity); > 80% in assay [1] (72 h, 3 Day Curative, wheat leaf blotch, read-out: SEPTTR 3DC disease control, LV activity); > 80% in assay [2] (24 h, 1 Day Protectant, wheat brown rust, read-out: PUCCRT 1DP disease control, LV activity); > 80% in assay [2] (72 h, 3 Day Curative, wheat brown rust, read-out: PUCCRT 3DC disease control, LV activity).
Regarding `COc1ccnc(C(=O)N[C@@H](C)C(=O)O[C@@H](C)[C@H](c2ccc(F)cc2C)C2CCCCC2)c1O` [Compound 123], the pest or weed control at 100 ppm in assay [1] (setting [3]), in assay [1] (setting [4]), in assay [2] (setting [5]) and in assay [2] (setting [6]) was > 80% each time.
